Measurements from ChEMBL document CHEMBL1201862, “PubChem BioAssay data set” (2004).
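Test compounds were applied to cells in 96-well plates for 48 hours at 5 doses. GI50 = concentration required for 50% inhibition of growth.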 Activity calls are given as the source filed them. No stated cut-off is given here; in the data, active = GI50 up to about 1.1 µM and inactive = higher.

Assays:
Test in all cases: NCI tumour cell line growth inhibition, 48 h
OVCAR-4 = tested on: OVCAR-4
M14 = tested on: M14
KM12 = tested on: KM12
786-0 = tested on: 786-0
HT-29 = tested on: HT-29
ACHN = tested on: ACHN
SK-OV-3 = tested on: SK-OV-3
NCI-H522 = tested on: NCI-H522
SF-295 = tested on: SF-295
UACC-62 = tested on: UACC-62
IGROV-1 = tested on: IGROV-1
SW-620 = tested on: SW-620
CCRF-CEM = tested on: CCRF-CEM
NCI-H460 = tested on: NCI-H460
Malme-3M = tested on: Malme-3M
A549 = tested on: A549
SF-268 = tested on: SF-268
CAKI-1 = tested on: CAKI-1

Measured: GI50

NNC(=O)CC(=O)Nc1ccccc1F
inactive: OVCAR-4 > 100 µM | M14 > 100 µM | KM12 > 100 µM | 786-0 > 100 µM | HT-29 > 100 µM | ACHN > 100 µM | SK-OV-3 > 100 µM | NCI-H522 > 100 µM | SF-295 > 100 µM | UACC-62 > 100 µM | IGROV-1 > 100 µM | SW-620 > 100 µM | CCRF-CEM > 100 µM | NCI-H460 > 100 µM | Malme-3M > 100 µM | A549 > 100 µM | SF-268 > 100 µM | CAKI-1 > 100 µM

O=C(/C=C/c1ccc(Cl)c(Cl)c1)c1ccc2ccccc2c1
inactive: OVCAR-4 > 100 µM | M14 > 100 µM | KM12 > 100 µM | 786-0 > 100 µM | HT-29 > 100 µM | ACHN > 100 µM | SK-OV-3 > 100 µM | NCI-H522 88.5 µM | SF-295 > 100 µM | UACC-62 > 100 µM | IGROV-1 > 100 µM | SW-620 > 100 µM | CCRF-CEM > 100 µM | NCI-H460 37.7 µM | Malme-3M > 100 µM | A549 > 100 µM | SF-268 > 100 µM | CAKI-1 > 100 µM

Cc1ccc(C(=O)O/N=C2/CCCC/C2=C\c2ccccc2)cc1
inactive: OVCAR-4 36.9 µM | M14 > 100 µM | KM12 73.6 µM | 786-0 > 100 µM | HT-29 43.5 µM | ACHN 27.2 µM | SK-OV-3 > 100 µM | NCI-H522 16.6 µM | SF-295 39.2 µM | UACC-62 41.5 µM | IGROV-1 42.9 µM | SW-620 34 µM | CCRF-CEM 29.2 µM | NCI-H460 > 100 µM | Malme-3M 14.4 µM | A549 19.5 µM | SF-268 13.2 µM | CAKI-1 63.2 µM

Cc1ccc(S(=O)(=O)c2ccc(C)cc2[N+](=O)[O-])cc1
inactive: OVCAR-4 > 100 µM | M14 > 100 µM | KM12 > 100 µM | 786-0 > 100 µM | HT-29 > 100 µM | ACHN > 100 µM | SK-OV-3 > 100 µM | NCI-H522 43.7 µM | SF-295 79.4 µM | UACC-62 92.3 µM | IGROV-1 > 100 µM | SW-620 > 100 µM | CCRF-CEM > 100 µM | NCI-H460 > 100 µM | Malme-3M > 100 µM | A549 > 100 µM | SF-268 > 100 µM | CAKI-1 95.9 µM

C[N+](C)(C)CC(=O)N/N=C(/C(=O)Nc1ccc(Br)cc1)C1C(=O)NC(=O)NC1=O
inactive: OVCAR-4 > 100 µM | M14 > 100 µM | KM12 > 100 µM | 786-0 > 100 µM | HT-29 > 100 µM | ACHN > 100 µM | SK-OV-3 > 100 µM | NCI-H522 > 100 µM | SF-295 > 100 µM | UACC-62 > 100 µM | IGROV-1 > 100 µM | SW-620 > 100 µM | CCRF-CEM > 100 µM | NCI-H460 > 100 µM | Malme-3M > 100 µM | A549 > 100 µM | SF-268 > 100 µM | CAKI-1 > 100 µM

CC(C)N1CC2CC(CN(C(=O)c3ccc(Cl)cc3)C2)C1
inactive: OVCAR-4 > 100 µM | M14 > 100 µM | KM12 > 100 µM | 786-0 > 100 µM | HT-29 > 100 µM | ACHN > 100 µM | SK-OV-3 > 100 µM | NCI-H522 > 100 µM | SF-295 > 100 µM | UACC-62 > 100 µM | IGROV-1 > 100 µM | SW-620 > 100 µM | CCRF-CEM > 100 µM | NCI-H460 > 100 µM | Malme-3M > 100 µM | A549 > 100 µM | SF-268 > 100 µM | CAKI-1 > 100 µM

CC[C@]1(O)C(=O)OCc2c1cc1n(c2=O)Cc2cc3c(N)cccc3nc2-1
inactive: OVCAR-4 > 100 µM | M14 > 100 µM | KM12 > 100 µM | 786-0 > 100 µM | HT-29 > 100 µM | ACHN > 100 µM | SK-OV-3 > 100 µM | NCI-H522 > 100 µM | SF-295 > 100 µM | UACC-62 > 100 µM | IGROV-1 > 100 µM | SW-620 > 100 µM | CCRF-CEM > 100 µM | NCI-H460 > 100 µM | Malme-3M > 100 µM | A549 > 100 µM | SF-268 > 100 µM | CAKI-1 > 100 µM

O=C(CC(=O)n1nc(-c2ccccc2)c(/N=N/c2ccc([N+](=O)[O-])cc2)c1-c1ccccc1)Nc1ccc(Cl)cc1
inactive: OVCAR-4 34.2 µM | M14 13.5 µM | KM12 12 µM | 786-0 34.8 µM | HT-29 12.5 µM | ACHN 2.07 µM | SK-OV-3 18.8 µM | NCI-H522 23.2 µM | SF-295 40.6 µM | UACC-62 2.56 µM | IGROV-1 36.4 µM | SW-620 21.6 µM | CCRF-CEM 15.6 µM | NCI-H460 30.1 µM | Malme-3M 19 µM | A549 15.9 µM | SF-268 13.5 µM | CAKI-1 20 µM

COc1c(Cl)c(Cl)c(OC)c2c1C(=O)C=CC2=O
inactive: OVCAR-4 15.3 µM | M14 19.6 µM | KM12 17.5 µM | 786-0 17.1 µM | HT-29 29.9 µM | ACHN 15.1 µM | SK-OV-3 76.7 µM | NCI-H522 17.6 µM | SF-295 18.5 µM | UACC-62 15.6 µM | IGROV-1 24.7 µM | SW-620 16.8 µM | CCRF-CEM 3.83 µM | NCI-H460 37.8 µM | Malme-3M 15.1 µM | A549 88.7 µM | SF-268 15.6 µM | CAKI-1 22.9 µM

COc1cccc2c1C1=CC(=O)CCC1C(C)(C)O2 (stereo not drawn)
inactive: OVCAR-4 > 100 µM | M14 > 100 µM | KM12 45.6 µM | 786-0 > 100 µM | HT-29 > 100 µM | ACHN > 100 µM | SK-OV-3 > 100 µM | NCI-H522 > 100 µM | SF-295 > 100 µM | UACC-62 > 100 µM | IGROV-1 > 100 µM | SW-620 13.4 µM | CCRF-CEM 56.4 µM | NCI-H460 35.9 µM | Malme-3M > 100 µM | A549 > 100 µM | SF-268 44.1 µM | CAKI-1 > 100 µM

C[N+](C)(C)CCc1ccccc1
inactive: OVCAR-4 > 100 µM | M14 > 100 µM | KM12 > 100 µM | 786-0 > 100 µM | HT-29 > 100 µM | ACHN > 100 µM | SK-OV-3 > 100 µM | NCI-H522 > 100 µM | SF-295 > 100 µM | UACC-62 > 100 µM | IGROV-1 > 100 µM | SW-620 > 100 µM | CCRF-CEM > 100 µM | NCI-H460 > 100 µM | Malme-3M > 100 µM | A549 > 100 µM | SF-268 > 100 µM | CAKI-1 > 100 µM
